Test system: proteins in HEK293T cells
Assay: MS-based mapping of FFF probe-modified peptides (isoTOP, sites of labeling)
Format: binding, human
Settings: for Labeled Peptide (residues) of NPM1 Nucleophosmin: P06748, PDB 2P1B
Description: Preparation and analysis was adapted from methods previously reported. In brief, for global mapping of fragment probe-modified peptides, separate 10 cm dishes of cells were treated with probes (200-250 μM) in 3.0 mL of DMEM (serum-free) and (if applicable) competitor ligands, proteomes harvested and subjected to click chemistry conditions with either light or heavy isotopically labeled biotin-TEV-azide (10 μL of 5 mM stocks in DMSO, final concentration=100 μM), TCEP, ligand and CuSO4 as detailed above. The samples were allowed to react for 1 h at which point the samples were centrifuged (16,000 g, 5 min, 4° C.). The resulting pellets were sonicated in ice-cold methanol (500 μL) and the resuspended light- and heavy-labeled samples were then combined and centrifuged (16,000 g, 5 min, 4° C.). The pellets were then solubilized in PBS containing 1.2% SDS (1 mL) with sonication and heating (5 min, 95° C.). Samples were transferred to falcon tubes containing DPBS (5 mL), to which a 100 μL of streptavidin-agarose beads slurry was added. After incubation, the beads (3 hr) were pelleted by centrifugation (1,400 g, 3 min) and were washed (2×10 mL PBS and 2×10 mL water). The beads were transferred to eppendorf tubes with 1 mL DPBS, centrifuged (1,400 g, 3 min), and resuspended in PBS containing 6 M urea. To this was added 10 mM DTT (25 μL of a 200 mM stock in water) and the beads were incubated at 65° C. for 15 mins. 20 mM iodoacetamide (25 μL of a 400 mM stock in water) was then added and allowed to react at 37° C. for 30 mins with shaking. The bead mixture was diluted with 900 μL PBS, pelleted by centrifugation (1,400 g, 3 min), and resuspended in 200 μL 2M urea (DPBS) containing trypsin and CaCl2 as described above. The beads were separated from the digest by centrifugation (1,000 g, 1 min), washed (2×1 mL PBS and 2×1 mL water) and then transferred to fresh eppendorfs with 1 mL water. The washed beads were washed once further in 150 μL TEV buffer (50 mM Tris, pH 8, 0.5 mM EDTA, 1 mM DTT) by centrifugation (1,400 g, 3 min) and the resuspended in 150 μL TEV buffer. 5 μL TEV protease (80 μM) was added and the reactions were rotated overnight at 29° C. The TEV digest was separated from the beads by centrifugation (1,400 g, 3 min) and the beads were washed once with water (100 μL). The samples were then acidified to a final concentration of 5% (v/v) formic acid and stored at −80° C. prior to analysis.
The resulting probe-modified peptides were collected for MS analysis, which was performed as described above with differences in the salt bumps applied in the chromatographic gradients which in this case were 0%, 30%, 60%, 90% and 100% NH4OAc (500 μM). The protein identification searches of the MS data were performed with the following changes applied to identify the peptides modified with the corresponding fragment probe and the cleaved TEV tag. All amino acids were considered as possible residues for modification. To facilitate the computational searches, sets of up to 3 amino acids were searched using ProLuCID and filtered with DTASelect as described above. […] The isoTOP ratios for probe labeled peptides were quantified using the in-house software CIMAGE.
For each protein in the site-of-labeling dataset, the UniProtKB accession number was used to map and collect relevant structures from the RCSB Protein Data Bank (PDB) fulfilling the following criteria: structures determined by X-ray crystallography, wild-type protein, Homo sapiens as the sole source organism. […] Fpocket 2.0 was used to detect potential binding pockets for the resultant structures with all parameters set at recommended default. Pockets with volume less than 500 Å^3 were removed from output prior to further analysis. Residues surrounding fpocket predicted binding pockets for each protein were collected to determine the number of residues overlapping with isoTOP peptides.

C#CCCC1(CCC(=O)N2CCCCC2Cc2ccccc2)N=N1 (stereo not drawn) [probe 13, 1-(2-Benzylpiperidin-1-yl)-3-(3-(but-3-yn-1-yl)-3H-diazirin-3-yl)propan-1-one]
Labeled Peptide of GRWD1 Glutamate-rich WD repeat-containing protein 1 (Accession Q9BQ67, residues of probe-labeled peptide, family Uncategorized): 263-287 | Labeled Peptide (IMPDH2 Inosine-5-monophosphate dehydrogenase 2, residues of probe-modified peptide): 110-124 | Labeled Peptide (MAPRE1 (Q15691), residues of the probe-labeled peptide): 223-241 | Labeled Peptide (MCM2 (P49736), residues of the probe-labeled peptide): 797-807 | Labeled Peptide (METTL7A (Q9H8H3), residues of the probe-labeled peptide): 94-105 | Labeled Peptide (NTMT1 (Q9BV86), residues of the probe-labeled peptide): 167-185 | Labeled Peptide (NUP155 (O75694), residues of the probe-labeled peptide): 952-968 | Labeled Peptide (OPA1 (O60313), residues of the probe-labeled peptide): 801-818 | Labeled Peptide (residues) of NPM1 Nucleophosmin (peptide DELHIVEAEAMNYEGSPIK): 55-73 | Labeled Peptide (residues) of NPM1 Nucleophosmin (peptide MSVQPTVSLGGFEITPPVVLR): 81-101 | Labeled Peptide (P12268 IMPDH2 Inosine-5-monophosphate dehydrogenase 2): 110-124 | Labeled Peptide (P24666 ACP1 Low molecular weight phosphotyrosine protein phosp): 42-59 | Labeled Peptide (P31939 ATIC Bifunctional purine biosynthesis protein PURH): 178-194 | Labeled Peptide (residues) of PRDX2 Peroxiredoxin-2 (P32119, peptide TDEGIAYR, PDB 1QMV): 120-127 | Labeled Peptide (Q13867 BLMH Bleomycin hydrolase): 203-218 | Labeled Peptide (Q14240 EIF4A2 Eukaryotic initiation factor 4A-II): 70-83 | Labeled Peptide (protein ACP1 (P24666), residues of probe-labeled peptide): 42-59 | Labeled Peptide (protein ACP1 Low molecular weight phosphotyrosine protein phosp, residues of probe-labeled peptide): 42-59 | Labeled Peptide (protein ANP32A (Q10567), residues of probe-labeled peptide): 117-132 | Labeled Peptide (protein ANP32A Acidic leucine-rich nuclear phosphoprotein 32 fami, residues of probe-labeled peptide): 117-132 | Labeled Peptide (protein ANP32B (Q92688), residues of probe-labeled peptide): 117-132 | Labeled Peptide (protein AP1B1 (Q10567), residues of probe-labeled peptide): 902-913 | Labeled Peptide (protein ATIC (P31939), residues of probe-labeled peptide): 178-194 | Labeled Peptide (protein ATIC Bifunctional purine biosynthesis protein PURH, residues of probe-labeled peptide): 178-194 | Labeled Peptide (protein ATP5F1 (P24539), residues of probe-labeled peptide): 71-90 | Labeled Peptide (protein ATP6V1B2 (P21281), residues of probe-labeled peptide): 83-93 | Labeled Peptide (protein ATP6V1BE1 (P36543), residues of probe-labeled peptide): 200-212 | Labeled Peptide (protein BLMH (Q13867), residues of probe-labeled peptide): 203-218 | Labeled Peptide (protein BLMH Bleomycin hydrolase, residues of probe-labeled peptide): 203-218 | Labeled Peptide (protein CALM3 Calmodulin (P62158), residues of probe-labeled peptide): 128-149 | Labeled Peptide (protein CCT7 T-complex protein 1 subunit eta (Q99832), residues of probe-labeled peptide): 85-106 | Labeled Peptide (protein COPB1 Coatomer subunit beta (P53618), residues of probe-labeled peptide): 262-279 | Labeled Peptide (protein CSTF3 Cleavage stimulation factor subunit 3 (Q12996), residues of probe-labeled peptide): 440-464 | Labeled Peptide (protein DIABLO Diablo homolog, mitochondrial (Q9NR28), residues of probe-labeled peptide): 124-140 | Labeled Peptide (protein DIABLO Diablo homolog, mitochondrial, residues of probe-labeled peptide): 124-140 | Labeled Peptide (protein EEF1A1 Elongation factor 1-alpha 1 (P68104), residues of probe-labeled peptide): 135-146 | Labeled Peptide (protein EEF1G Elongation factor 1-gamma (P26641), residues of probe-labeled peptide): 379-400 | Labeled Peptide (protein EIF3L Eukaryotic translation initiation factor 3 submit (Q9Y262), residues of probe-labeled peptide): 404-419 | Labeled Peptide (protein EIF4A2 Eukaryotic initiation factor 4A-II (Q14240), residues of probe-labeled peptide): 70-83 | Labeled Peptide (protein EIF4A2 Eukaryotic initiation factor 4A-II, residues of probe-labeled peptide): 70-83 | Labeled Peptide (protein ERH Enhancer of rudimentary homolog (P84090), residues of probe-labeled peptide): 18-34 | Labeled Peptide (protein ERH Enhancer of rudimentary homolog, residues of probe-labeled peptide): 18-34 | Labeled Peptide (protein FKBP4 Peptidyl-prolyl cis-trans isomerase (Q02790), residues of probe-labeled peptide): 190-206 | Labeled Peptide (protein FKBP4 Peptidyl-prolyl cis-trans isomerase FKBP4, residues of probe-labeled peptide): 190-206 | Labeled Peptide (protein FKBP10 Peptidyl-prolyl cis-trans isomerase FKBP10 (Q96AY3), residues of probe-labeled peptide): 198-212 | Labeled Peptide (protein KPNA2 Importin subunit alpha-2, residues of the probe-labeled peptide): 301-315 | Labeled Peptide (protein NTMT1 N-terminal Xaa-Pro-Lys N-methyltransferase 1, residues of the probe-labeled peptide): 167-185 | Labeled Peptide (protein O43615 TIMM44 Mitochondrial import inner membrane translocase su): 428-439 | Labeled Peptide (protein P62241 RPS8 40S ribosomal protein S8): 158-170 | Labeled Peptide (protein P62314 SNRNP40 U5 small nuclear ribonucleoprotein Sm D1): 67-86 | Labeled Peptide (protein P62888 RPL30 60S ribosomal protein L30): 58-68 | Labeled Peptide (protein PDCD4 Programmed cell death protein 4 (Q53EL6)): 246-256 | Labeled Peptide (protein PDCD4 Programmed cell death protein 4, residues of the probe-labeled peptide): 246-256 | Labeled Peptide (protein PDS5A Sister chromatid cohesion protein PDS5 homolog A (Q29RF7)): 638-657 | Labeled Peptide (protein PFN1 Profilin-1 (P07737)): 39-54 | Labeled Peptide (protein PHGDH D-3-phosphoglycerate dehydrogenase (O43175)): 295-308 | Labeled Peptide (protein PMPCB Mitochondrial-processing peptidase subunit beta (O75439)): 406-424 | Labeled Peptide (protein PRDX2 Peroxiredoxin-2 (P32119)): 120-127 | Labeled Peptide (protein PRDX2 Peroxiredoxin-2, residues of the probe-labeled peptide): 120-127 | Labeled Peptide (protein PRMT1 Protein argine N-methyltransferase 1 (Q99873)): 380-391 | Labeled Peptide (protein PTPLAD1 3-hydroxyacyl-CoA dehydratase 3 (Q9P035)): 133-146 | Labeled Peptide (protein Q8N3U4 STAG2 Cohesin subunit SA-2): 273-290 | Labeled Peptide (protein Q96DI7 SNRNP40 U5 small nuclear ribonucleoprotein 40 kDa protein): 233-260 | Labeled Peptide (protein Q01082 SPTAN1 Spectrin beta chain, non-erythrocytic 1): 1706-1717 | Labeled Peptide (protein Q12931 TRAP1 Heat shock protein 75 kDa, mitochondrial): 603-619 | Labeled Peptide (protein Q92922 SMARCC1 SWI/SNF complex subunit SMARCC1): 894-905 | Labeled Peptide (protein RBC2 Replication (P35250)): 211-230 | Labeled Peptide (protein RCN1 Reticulocalbin-1 (Q15293)): 91-105 | Labeled Peptide (protein RPL30 60S ribosomal protein L30, residues of the probe-labeled peptide): 58-68 | Labeled Peptide (protein STAG2 Cohesin subunit SA-2, residues of the probe-modified peptide): 273-290 | Labeled Peptide (protein TIMM44 Mitochondrial import inner membrane translocase su, residues of the probe-modified peptide): 428-439 | Labeled Peptide (residues of probe-labeled peptide on TUBA4A Tubulin alpha-4A chain, Accession # P68366): 340-352

Reference: patent US11535597B2, “Photoreactive ligands and uses thereof” (The Scripps Research Institute, priority 2017, dated 2022)
